In PubChem BioAssay AID1963854 (Molecular Pharmacology Branch, DTP, NCI, 2024):

Tested on: 186277-243-T-J2-PDC complex spheroid viability
Assay: Anticancer human tumor 186277-243-T-J2-PDC patient-derived colon adenocarcinoma cell line growth inhibition [POLQ]
Details: for IC50: curve of first compound; for viability, T/C: stronger effect = lower value; active = viability on the fitted dose curve at most 10% of control; inactive = the rest
Method: Multicellular complex tumor spheroid response to Polymerase (POL) inhibitors (novobiocin, ART-558, RP6685) in combination with a variety of drugs and investigational agents in selected tumor cell lines
The POL inhibitors (novobiocin, ART-558, and RP6685) were evaluated both individually and in combination with standard of care and investigational anticancer small molecules within a complex spheroid model of solid tumors. . Complex spheroids include a stromal component modeled by human endothelial cells (HUVEC) and fibroblasts modeled by human mesenchymal stem cells (MSCs). The concentration ranges selected for each drug and investigational agent were based upon clinically achievable concentrations if the clinical Cmax of the agent was known.
Compounds. The drugs and investigational agents: novobiocin (NSC847541), ART-558 (NSC835418), RP-6685 (NSC848927), peposertib (NSC802822), ceralasertib (NSC780249), elimusertib (NSC800525), camonsertib (NSC841442), AZD-1390 (NSC803789), olaparib (NSC753686), talazoparib (NSC767125), rucaparib (NSC756644), sotorasib (NSC818433), MRTX-1133 (NSC836407), SN-38 (NSC673596), topotecan (NSC609699), epotoside (NSC141540), doxorubicin (NSC123127), gemcitabine (NSC613327), 5-fluorouracil (NSC19893), paclitaxel (NSC125973), vemurafenib (NSC761431), MSA-2 (NSC828583), SN-011 (NSC837082), adavosertib (NSC754352), prexasertib (NSC758257), carboplatin (NSC241240) and oxaliplatin (NSC266046), were obtained from the National Cancer Institute (NCI) Developmental Therapeutics Program Chemical Repository (21). The FDA-approved anticancer drug set is available from the Developmental Therapeutics Program at https://dtp.cancer.gov/organization/dscb/obtaining/. […] The stock solutions were prepared in dimethyl sulfoxide (DMSO, Sigma-Aldrich, St. Louis, MO, cat. D2650), except for the platinum compounds which were prepared in saline (Quality Biological, Gaithersburg, MD, cat. 114-055-101), at 800-fold the tested concentration and stored at -70 degrees C prior to their use. All drugs and investigational agents were tested over a range starting from a high concentration at or near the clinical Cmax and decreasing in half-log increments. If the clinical Cmax for an agent had not been determined, the highest concentration tested was 10 microM, except for SN-38, which was tested at a high concentration of 1 microM.
Cell Culture. All cells were maintained in an incubator at 37 degrees C and 5% CO2 with 95% humidity. The PDC lines were cultured according to standard operating procedures established by the NCI PDMR (https://pdmr.cancer.gov). Table 3 of the manuscript, lists the cell lines along with the number of the three cell types plated to form the mct-spheroids and media for tumor cell growth. After thawing, all PDC lines, except 997537-175-T-J1-PDC and 415267-285-R-J2-PDC, were cultured in Matrigel-coated flasks prepared with a working solution of 1X Ham's F-12 nutrient mix, without supplementation (Thermo Fisher Scientific, cat. 11765054), 100 U/mL penicillin-streptomycin (Thermo Fisher Scientific, cat. 15140122), and 2.5% Matrigel (Corning Inc., Corning, NY, cat. 354248) for the first three passages. The two PDC lines 997537-175-T-J1-PDC and 415267-285-R-J2-PDC were cultured on uncoated flasks. The 857933-349-R-J2-PDC line was cultured in 6C/Colon 1B media containing advanced DMEM/F-12 (Thermo Fisher Scientific, cat. 12634028), 10 mM HEPES (Thermo Fisher Scientific, cat. 15630080), 1X GlutaMAX supplement (Thermo Fisher Scientific, cat. 35050061), 0.1 mg/mL primocin (InvivoGen, San Diego, CA, cat. ant-pm-2), 10% defined fetal bovine serum, heat inactivated (HyClone Laboratories Inc., Logan, UT, cat. SH30070.03HI), 50% L-WRN conditioned media (ATCC, cat. CRL-3276), 1.25 mM N-Acetyl-L-cysteine (Sigma-Aldrich, cat. A9165), 10 mM nicotinamide (Sigma-Aldrich, cat. N0636), 1X B-27 supplement (Thermo Fisher Scientific, cat. 17504044), 1X N-2 supplement (Thermo Fisher Scientific, cat. […]

[1] = second compound 0.0316 µM, first compound 0.0316 µM
[2] = second compound 0.0316 µM, first compound 0.1 µM
[3] = second compound 0.0316 µM, first compound 0.316 µM
[4] = second compound 0.0316 µM, first compound 1 µM
[5] = second compound 0.0316 µM, first compound 3.16 µM
[6] = second compound 0.0316 µM, first compound 10 µM
[7] = second compound 0.1 µM, first compound 0.0316 µM
[8] = second compound 0.1 µM, first compound 0.1 µM
[9] = second compound 0.1 µM, first compound 0.316 µM
[10] = second compound 0.1 µM, first compound 1 µM
[11] = second compound 0.1 µM, first compound 3.16 µM
[12] = second compound 0.1 µM, first compound 10 µM
[13] = second compound 0.316 µM, first compound 0.0316 µM
[14] = second compound 0.316 µM, first compound 0.1 µM
[15] = second compound 0.316 µM, first compound 0.316 µM
[16] = second compound 0.316 µM, first compound 1 µM
[17] = second compound 0.316 µM, first compound 3.16 µM
[18] = second compound 0.316 µM, first compound 10 µM
[19] = second compound 1 µM, first compound 0.0316 µM
[20] = second compound 1 µM, first compound 0.1 µM
[21] = second compound 1 µM, first compound 0.316 µM
[22] = second compound 1 µM, first compound 1 µM
[23] = second compound 1 µM, first compound 3.16 µM
[24] = second compound 1 µM, first compound 10 µM
[25] = second compound 3.16 µM, first compound 0.0316 µM
[26] = second compound 3.16 µM, first compound 0.1 µM
[27] = second compound 3.16 µM, first compound 0.316 µM
[28] = second compound 3.16 µM, first compound 1 µM
[29] = second compound 3.16 µM, first compound 3.16 µM
[30] = second compound 3.16 µM, first compound 10 µM
[31] = second compound 10 µM, first compound 0.0316 µM
[32] = second compound 10 µM, first compound 0.1 µM
[33] = second compound 10 µM, first compound 0.316 µM
[34] = second compound 10 µM, first compound 1 µM
[35] = second compound 10 µM, first compound 3.16 µM
[36] = second compound 10 µM, first compound 10 µM
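Also: spheroids exposed to compounds for seven days.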

CNCc1ccc(-c2[nH]c3cc(F)cc4c3c2CCNC4=O)cc1 + Cc1cccc(N(C)C(=O)C2C(O)CCN2c2nc(C)cc(C(F)(F)F)c2C#N)c1
> 10 µM: IC50 (second compound 0.0316 µM) | IC50 (second compound 0.1 µM) | IC50 (second compound 0.316 µM) | IC50 (second compound 1 µM) | IC50 (second compound 3.16 µM) | IC50 (second compound 10 µM)
inactive: viability, T/C [1] 105% | viability, T/C [2] 97.5% | viability, T/C [3] 104% | viability, T/C [4] 102% | viability, T/C [5] 102% | viability, T/C [6] 97.5% | viability, T/C [7] 81.2% | viability, T/C [8] 98.9% | viability, T/C [9] 107% | viability, T/C [10] 108% | viability, T/C [11] 115% | viability, T/C [12] 91.1% | viability, T/C [13] 103% | viability, T/C [14] 109% | viability, T/C [15] 94.8% | viability, T/C [16] 105% | viability, T/C [17] 93.8% | viability, T/C [18] 91.7% | viability, T/C [19] 102% | viability, T/C [20] 105% | viability, T/C [21] 95.2% | viability, T/C [22] 95% | viability, T/C [23] 105% | viability, T/C [24] 76.9% | viability, T/C [25] 100% | viability, T/C [26] 108% | viability, T/C [27] 107% | viability, T/C [28] 105% | viability, T/C [29] 115% | viability, T/C [30] 78.4% | viability, T/C [31] 106% | viability, T/C [32] 98.4% | viability, T/C [33] 107% | viability, T/C [34] 90.1% | viability, T/C [35] 94.2% | viability, T/C [36] 69.4%

Nc1ccn(C2OC(CO)C(O)C2(F)F)c(=O)n1 (centres undefined) + Nc1ccc(C#CCN(C(=O)Cc2ncc(C(F)(F)F)cc2C(F)(F)F)c2ccc(F)cc2)nn1
< 0.0316 µM: IC50 (second compound 0.0316 µM) | IC50 (second compound 0.1 µM) | IC50 (second compound 0.316 µM) | IC50 (second compound 1 µM) | IC50 (second compound 3.16 µM) | IC50 (second compound 10 µM)
inactive: viability, T/C [1] 14.7% | viability, T/C [2] 11.5% | viability, T/C [3] 11.6% | viability, T/C [4] 14% | viability, T/C [5] 14% | viability, T/C [6] 13.6% | viability, T/C [7] 13.9% | viability, T/C [8] 12.2% | viability, T/C [9] 12.4% | viability, T/C [10] 13.2% | viability, T/C [11] 15% | viability, T/C [12] 13.8% | viability, T/C [13] 14.4% | viability, T/C [14] 12.9% | viability, T/C [15] 12.7% | viability, T/C [16] 13.4% | viability, T/C [17] 14.1% | viability, T/C [18] 15.2% | viability, T/C [19] 12.8% | viability, T/C [20] 12% | viability, T/C [21] 11.7% | viability, T/C [22] 13% | viability, T/C [23] 14.8% | viability, T/C [24] 14.3% | viability, T/C [25] 13% | viability, T/C [26] 13.9% | viability, T/C [27] 10.6% | viability, T/C [28] 11.9% | viability, T/C [29] 15.2% | viability, T/C [30] 15.3% | viability, T/C [31] 12.5% | viability, T/C [32] 11.3% | viability, T/C [33] 11.5% | viability, T/C [34] 11.5% | viability, T/C [35] 12.9% | viability, T/C [36] 13.9%
